Calls of active or inactive are those of the source. The calls are words filed in the database; no cut-off is given here.
Target: Heat shock protein HSP90 (Homo sapiens) (UniProt P07900+P08238)
Test: Binding affinity to human HSP90-N-Middle Domain expressed in BL21 Escherichia coli after 2 hrs using silver staining by Pull down assay

Row | SMILES | Activity
1 | CC(C)[C@@H]1NC(=O)[C@H](CCCCNC(=O)CCOCCOCCOCCOCCNC(=O)CCCC[C@@H]2SC[C@@H]3NC(=O)N[C@@H]32)NC(=O)[C@H](CCCCNC(=O)OCc2ccccc2)NC(=O)[C@H](Cc2ccccc2)NC(=O)[C@@H](Cc2ccccc2)N(C)C1=O | Active
2 | CC(C)C[C@@H]1NC(=O)[C@H](CCCCNC(=O)OCc2ccccc2)NC(=O)[C@H](CCCCNC(=O)CCOCCOCCOCCOCCNC(=O)CCCC[C@@H]2SC[C@@H]3NC(=O)N[C@@H]32)NC(=O)[C@@H](Cc2ccccc2)N(C)C(=O)[C@H](C(C)C)NC1=O | Active
3 | CC(C)C[C@@H]1NC(=O)[C@H](CCCCNC(=O)OCc2ccccc2)NC(=O)[C@H](Cc2ccccc2)NC(=O)[C@@H](Cc2ccccc2)N(C)C(=O)[C@H](CCCCNC(=O)CCOCCOCCOCCOCCNC(=O)CCCC[C@@H]2SC[C@@H]3NC(=O)N[C@@H]32)NC1=O | Active
